Several values for one entry are separate records, joined by “and”; a condition that tells them apart may be missing. Equal entries are not always repeated.
Columns and labels:
[1] = tested on: patients with MDD and an inadequate response to an SSRI or SNRI; assay: Sheehan Disability Score (SDS): score, functional remission, days unproductive, MDD study; type: in vivo, human
Excerpt: The SDS is well validated and widely accepted for assessing functional outcomes in patients with MDD (Weiller et al, Neuropsychiatr Dis Treat. 2017; 14:103-115). […] Routine assessments of both symptoms and function could be helpful for minimizing residual effects that increase the risk for relapse or recurrence (Sheehan et al, J Affect Disord. 2017; 215:299-313).
“Functional remission” as used herein refers to remission in functional impairment. Functional remission is defined as a SDS total score of 6 or less at endpoint. (Sheehan et al. Human Psychopharmacology 2016, 31, 53-63).
All patients continued on their SSRI or SNRI at a stable dose for the duration of the study.
Clinic visits occurred weekly from Weeks 1 through 10. The MADRS was administered at screening and baseline. The HAMD-17, SDS, CGI, and KSS were administered at baseline and weekly during the study. Other endpoints such as the SF-12 were administered at baseline and Weeks 5 and 10. Treatment response was defined as a reduction of 50% from baseline for the HAMD-17 total score, and remission was defined as a HAMD-17 total score
In Stage 1, weeks 1-5 is the study weeks 1-5 and in Stage 2, weeks 1-5 is the study weeks 6-10. 95% CI refers to Newcombe 95% confidence interval. The p-value is from stage-specific Pearson's Chi-square test. Functional remission is defined as SDS total score […].
Higher SDS mean score indicates greater functional impairment. […] In Stage 1, weeks 1-5 is the study weeks 1-5 and in Stage 2, weeks 1-5 is the study weeks 6-10. LSM from the stage-specific MMRM analysis with the change from baseline as the outcome; treatment group, visit, treatment-by-visit interaction, baseline SDS Day Unproductive, and baseline SDS Days Unproductive-by-visit interaction as the factors. 2-sided p-value for treatment difference from the stage-specific MMRM analysis.

[2] = tested on: adults with Parkinson's disease and depression; assay: CGI-I, open-label study in Parkinson's disease and depression; type: in vivo, human; details: interim, first 31 patients
Excerpt: “Clinical Global Impression (CGI)” scale is a clinician-rated, 7-point scale that is designed to rate the severity of the subject's depression at the time of assessment using the Investigator's judgment and past experience with subjects who have the same disorder (i.e., depression with anxious distress). “Clinical Global Impression-Improvement (CGI-I)” is a clinician-rated, 7-point scale that is designed to rate the improvement in the subject's depression at the time of assessment, relative to the symptoms at Baseline. “Clinical Global Impression—Severity (CGI-S)” is an assessment of the current severity of the patient's disease.
Subjects can receive treatment as either monotherapy or adjunctively if inadequately controlled with SSRI/SNRI monotherapy. […] Secondary endpoints include Clinical Global Impression (CGI) scales (improvement and severity), Scale of Outcomes in PD-Sleep (SCOPA), and quality of life as measured by EuroQol-5 dimensions-5 levels (EQ-5D-5L).
(§1) At approximately 2, 4, and 6 weeks after start of dosing of study drug subjects returned to the clinic for assessments. Safety measures, HAMD-17, C-SSRS (Columbia Suicide Severity Rating Scale), CGI-S(Clinical Global Impression-Severity), and CGI-I (Clinical Global Impression-Improvement) were evaluated at all visits. […]

[3] = tested on: adults with Parkinson's disease and depression; assay: SCOPA Sleep, open-label study in Parkinson's disease and depression; type: in vivo, human; details: interim, first 31 patients
Excerpt: “Scale of Outcomes in Parkinson's Disease (SCOPA) Sleep” is a scale developed for research in Parkinson disease to evaluate nighttime sleep and daytime sleepiness and has high internal consistency for the nighttime sleep and daytime sleepiness scales (0.88 and 0.91, respectively), and test-retest reliabilities (0.94 and 0.89, respectively). Scores on the SCOPA Sleep Scale show high correlations between the nighttime sleep scale and the Pittsburgh Sleep Quality Index (0.83), and between the daytime sleepiness scale and the Epworth Sleepiness Scale (0.81). The coefficient of variation of both the nighttime sleep and the daytime sleepiness scale can be higher than that of the Pittsburgh Sleep Quality Index and the Epworth Sleepiness Scale, indicating a better ability to detect differences between individuals. (Marinus J, Visser M, van Hilten J J, Lammers G J, Stiggelbout A M. Sleep. 2003; 26(8):1049-1054.)
Subjects can receive treatment as either monotherapy or adjunctively if inadequately controlled with SSRI/SNRI monotherapy. A primary endpoint of the study is change from baseline to Week 8 in the Hamilton Depression Scale 17-item (HAMD-17) total score. Secondary endpoints include Clinical Global Impression (CGI) scales (improvement and severity), Scale of Outcomes in PD-Sleep (SCOPA), and quality of life as measured by EuroQol-5 dimensions-5 levels (EQ-5D-5L).
as §1
Continuous secondary efficacy endpoints (CGI-I, CGI-S, SCOPA, and EQ-5D-5L) were analyzed using similar MMRM models as for the primary efficacy endpoint, except that the Baseline value of the endpoint being analyzed was included in the model as a covariate instead of the Baseline HAMD-17 total score. […]

[4] = tested on: patients with MDD and an inadequate response to an SSRI or SNRI; details: in vivo

SMILES: CC(C)COc1ccc(CNC(=O)N(Cc2ccc(F)cc2)C2CCN(C)CC2)cc1 [pimavanserin, N-(4-Fluorophenylmethyl)-N-(1-methylpiperidin-4-yl)-N′-(4-(2-methylpropyloxy)phenylmethyl)carbamide]
- SDS Days Unproductive Effect Size (Cohen's d) ([1]; Stage 1): 0.518
- SDS Days Unproductive Change from Baseline to Week 5 Mean (SE) ([1]; Stage 1, 34 mg QD + SSRI/SNRI): −2.364 (0.3253)
- SDS Days Unproductive Change from Baseline to Week 5 Median ([1]; Stage 1, 34 mg QD + SSRI/SNRI): −2.000
- SDS Days Unproductive Week 5 Mean (SE) ([1]; Stage 1, 34 mg QD + SSRI/SNRI): 0.956 (0.2356)
- SDS Days Unproductive Week 5 Median ([1]; Stage 1, 34 mg QD + SSRI/SNRI): 0.000
- SDS score LSmean (SE) change from baseline to Week 5 ([1]; Stage 1, 34 mg QD + SSRI/SNRI): −3.3 (0.35)
- SDS score LSmean (SE) change from baseline to Week 5 ([1]; Stage 1, 34 mg QD + SSRI/SNRI, listed as Pimavanserin): −3.254
- SDS effect size (Cohen's d) ([1]; Stage 1 Week 5): 0.498 and ~0.5
- SDS individual items (work/school, social life, family life/home responsibilities) effect size vs placebo ([1]; Stage 1 Week 5): a positive effect size was observed for all the 3 individual items
- SDS effect size (Cohen's d) ([1]; Stage 1 Week 5, listed as Pimavanserin): 0.498
- SDS Days Unproductive Effect Size (Cohen's d) ([1]; Stage 2): 0.167
- SDS effect size (Cohen's d) ([1]; Stage 2): 0.311
- SDS Days Unproductive Change from Baseline to Week 5 Mean (SE) ([1]; Stage 2, 34 mg QD + SSRI/SNRI): −0.655 (0.4689)
- SDS Days Unproductive Change from Baseline to Week 5 Median ([1]; Stage 2, 34 mg QD + SSRI/SNRI): −1.000
- SDS Days Unproductive Week 5 Mean (SE) ([1]; Stage 2, 34 mg QD + SSRI/SNRI): 2.276 (0.4295)
- SDS Days Unproductive Week 5 Median ([1]; Stage 2, 34 mg QD + SSRI/SNRI): 2.000
- SDS Score LSM change from baseline to Week 5 ([1]; Stage 2, 34 mg QD + SSRI/SNRI): −0.901
- Functional remission: Remitter (%) ([1]; Week 1, Stage 1, 34 mg QD + SSRI/SNRI): 9 (17.6) %
- Functional remission: Remitter (%) ([1]; Week 1, Stage 2, 34 mg QD + SSRI/SNRI): 2 (6.9) %
- Functional remission: Remitter (%) ([1]; Week 2, Stage 1, 34 mg QD + SSRI/SNRI): 21 (41.2) %
- Functional remission: Remitter (%) ([1]; Week 2, Stage 2, 34 mg QD + SSRI/SNRI): 3 (10.3) %
- Functional remission: Remitter (%) ([1]; Week 3, Stage 1, 34 mg QD + SSRI/SNRI): 20 (39.2) %
- Functional remission: Remitter (%) ([1]; Week 3, Stage 2, 34 mg QD + SSRI/SNRI): 3 (10.3) %
- Functional remission: Remitter (%) ([1]; Week 4, Stage 1, 34 mg QD + SSRI/SNRI): 20 (39.2) %
- Functional remission: Remitter (%) ([1]; Week 4, Stage 2, 34 mg QD + SSRI/SNRI): 4 (13.8) %
- Functional remission: Remitter (%) ([1]; Week 5, Stage 1, 34 mg QD + SSRI/SNRI): 22 (43.1) %
- Functional remission: Remitter (%) ([1]; Week 5, Stage 2, 34 mg QD + SSRI/SNRI): 6 (20.7) %
- SDS effect size, treatment difference in LSmean change from baseline to Week 10 ([1]; continuous treatment for 10 weeks in Stages 1 and 2): 0.469
- Weighted Treatment Diff in Remission Rate (%) ([1]; functional remission, Overall Treatment Comparison at Week 5 (Linear Combination Test)): 18.6%
- Diff (PIM 34 mg-Placebo) in Remission Rate (%) ([1]; functional remission, Week 1, Stage 1): 5.1%
- Diff (PIM 34 mg-Placebo) in Remission Rate (%) ([1]; functional remission, Week 1, Stage 2): −3.4%
- Diff (PIM 34 mg-Placebo) in Remission Rate (%) ([1]; functional remission, Week 2, Stage 1): 27.4%
- Diff (PIM 34 mg-Placebo) in Remission Rate (%) ([1]; functional remission, Week 2, Stage 2): 0.0%
- Diff (PIM 34 mg-Placebo) in Remission Rate (%) ([1]; functional remission, Week 3, Stage 1): 24.1%
- Diff (PIM 34 mg-Placebo) in Remission Rate (%) ([1]; functional remission, Week 3, Stage 2): 0.0%
- Diff (PIM 34 mg-Placebo) in Remission Rate (%) ([1]; functional remission, Week 4, Stage 1): 19.5%
- Diff (PIM 34 mg-Placebo) in Remission Rate (%) ([1]; functional remission, Week 4, Stage 2): 6.9%
- Diff (PIM 34 mg-Placebo) in Remission Rate (%) ([1]; functional remission, Week 5, Stage 1): 23.4%
- Diff (PIM 34 mg-Placebo) in Remission Rate (%) ([1]; functional remission, Week 5, Stage 2): 13.8%
- SDS LSmean difference (SE) pimavanserin vs placebo ([1]; overall (weighted Stage 1 and Stage 2)): −0.8 (0.29)
- patients with a CGI-I score of 1 or 2 (very much improved or much improved) [2]: 54.8%
- SCOPA-Daytime Sleepiness change from Baseline to Week 8 [3]: −2.1 (0.4)
- SCOPA-Global Sleep Quality change from Baseline to Week 8 [3]: −1.0 (0.4)
- SCOPA-Nighttime Sleep change from Baseline to Week 8 [3]: −2.1 (0.7)
- deaths reported in the study [4]: no deaths
